Usually Km stands for the concentration of substrate that gives half-maximal velocity. As a reminder, the IC50 is the midpoint of a concentration-inhibition curve.

Data set [1] relates to Caco-2 cells. The data set is described as follows: Cytotoxicity assay. The class given is cell-based, human. The conditions noted are these: 100µM, 48 h.
For data set [2] the following is noted: cited from earlier work.
In data set [3] the target is T1, SMVT (Canis lupus familiaris, UniProt A0A8I3MY61).
T1 sequence (A0A8I3MY61 1-636): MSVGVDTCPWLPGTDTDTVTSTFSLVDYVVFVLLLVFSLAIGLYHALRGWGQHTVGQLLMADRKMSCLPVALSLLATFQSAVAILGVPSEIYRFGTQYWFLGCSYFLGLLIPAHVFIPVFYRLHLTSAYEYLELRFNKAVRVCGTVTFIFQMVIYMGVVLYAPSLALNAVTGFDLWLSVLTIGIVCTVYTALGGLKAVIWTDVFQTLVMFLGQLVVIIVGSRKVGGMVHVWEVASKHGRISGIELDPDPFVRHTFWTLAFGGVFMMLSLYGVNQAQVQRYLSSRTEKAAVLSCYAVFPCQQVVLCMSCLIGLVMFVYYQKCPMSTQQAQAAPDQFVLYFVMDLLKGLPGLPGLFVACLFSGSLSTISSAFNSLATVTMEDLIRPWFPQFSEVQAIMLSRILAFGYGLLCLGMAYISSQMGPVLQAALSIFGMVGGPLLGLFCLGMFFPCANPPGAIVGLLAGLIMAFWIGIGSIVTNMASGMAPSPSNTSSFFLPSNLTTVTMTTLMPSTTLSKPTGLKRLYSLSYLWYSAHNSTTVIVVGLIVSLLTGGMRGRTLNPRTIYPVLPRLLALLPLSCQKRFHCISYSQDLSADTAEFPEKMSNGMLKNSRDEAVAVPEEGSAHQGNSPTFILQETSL
It is filed as cell-based, canine. The conditions noted are these: MDCK-MDR1 cells, excess biotin, Fig. 4.

Data set [4] deals with T1, SMVT. The conditions noted are these: read-out: apparent affinity constant (Km) towards SMVT; MDCK-MDR1 cells, [3H] biotin uptake, 0.1–100µM, 30 min, Michaelis-Menten fit.
The target of data set [5] is T1, SMVT. The conditions noted are these: read-out: IC50 for inhibition of [3H] biotin uptake; MDCK-MDR1 cells, 0.1–100µM, 30 min.
Data set [6] deals with Caco-2 cells. The data set is described as follows: Cellular accumulation on Caco-2 cell monolayers. The conditions noted are these: 30 min incubation, Fig. 3.
In another data set the test system is MDCK-MDR1 cells. The data set is described as follows: Cellular accumulation on MDCK-MDR1 cell monolayers. The conditions noted are these: 30 min incubation, Fig. 2.
Data set [7] concerns the target T1, SMVT. The conditions noted are these: MDCK-MDR1 monolayers, 0.5µCi/ml, no inhibitor.

Consider `Nc1nc2c(ncn2COCCO)c(=O)[nH]1` [ACV, 2-amino-9-((2-hydroxyethoxy)methyl)-1H-purin-6(9H)-one], for which the cytotoxic effect result in the data set on Caco-2 cells [1] was “Neither ACV nor its targeted lipid prodrugs demonstrate any cytotoxic effect”. Also, in data set [2] (in vivo, po), the oral bioavailability is reported as 15–30%.

With `CCCCCCC(CCCCCCCCCCC(=O)OCCOCn1cnc2c(=O)[nH]c(N)nc21)OC(=O)CCCC[C@@H]1SC[C@@H]2NC(=O)N[C@@H]21` (stereo partly shown) [B-12HS-ACV, biotin-12hydroxystearicacid-acyclovir], the “uptake of prodrug in the presence of unlabeled biotin” value (“uptake of prodrug” below) at SMVT [3] is recorded as “significantly lower”. The Km on SMVT [4] was 24 ± 3.2 µM. Moreover, the IC50 at SMVT [5] is 8.17 ± 0.09 µM. The “increase in the uptake compared to ACV” value with Caco-2 cells [6] is 8.3 times.

Take `Nc1nc2c(ncn2COCCOC(=O)CCCC[C@@H]2SC[C@@H]3NC(=O)N[C@@H]32)c(=O)[nH]1` [B-ACV, Biotin-ACV]: the “uptake of prodrug” value on SMVT [3] is recorded as “significantly lower”. The Km at SMVT [4] is 30.9 ± 4.19 µM. For the same molecule, the IC50 at SMVT [5] was determined as 14.84 ± 0.1 µM. The “increase in the uptake compared to ACV” value in the data set on Caco-2 cells [6] is recorded as 3.5 times. The “increase in the uptake compared to parent drug, ACV” value in the data set with MDCK-MDR1 cells stood at 6 times.

As to `CC(C)[C@H](N)C(=O)OCCOCn1cnc2c(=O)[nH]c(N)nc21` [VACV, Valacyclovir], in data set [2] (ref Balimane et al., 1998, de Vrueh et al., Guo et al., 1999, Jacobson, 1993, Perry and Faulds, 1996, Soul-Lawton et al., 1995, Talluri et al., 2008), the “increase of the oral bioavailability of ACV” value is reported as 3 to 5 fold.

As to [^3H] Biotin, the “Permeability of [3H] biotin alone” value at SMVT [7] was 4.74 ×10⁻⁶ cm/s.

Take “biotin-ricinoleicacid-acyclovir [B-R-ACV]”: on SMVT [3], the “uptake of prodrug” value was “significantly lower”. Besides, the Km on SMVT [4] stood at 20.2 ± 1.74 µM. The IC50 at SMVT [5] was 8.04 ± 0.07 µM.

These data come from PMC3401275 (International Journal of Pharmaceutics, 2012).
